Assays:
[1] = system: patients with obstructive sleep apnea; assay: Phase 1b crossover study of overnight intravenous infusion in obstructive sleep apnea: safety and tolerability; type: in vivo, human; conditions: for placebo adjusted LS mean change in DBP / placebo adjusted LS mean change in SBP: at predose
Description: A phase 1b, randomized, double-blind, placebo-controlled, 3-period crossover study was conducted to evaluate the safety, tolerability, pharmacodynamic, and pharmacokinetic effects of overnight intravenous COMPOUND A in patients with obstructive sleep apnea (OSA). This study was planned to further evaluate COMPOUND A intravenous administration (IV) in adults with OSA, hypothesizing that nonwake-promoting exposures of COMPOUND A would increase genioglossal muscle tone and increase airway patency via the increasing activity of hypoglossal motoneurons. The main goal of this study was to evaluate the mechanistic potential of OX2R agonism for treatment of OSA using COMPOUND A IV infusion to determine appropriate use in future trials with an oral OX2R agonist.
Participants were male or female, aged 18 to 75 years inclusive, with OSA diagnosed according to the International Classification of Sleep Disorders-3 (ICSD-3) criteria and an apnea hypopnea index (AHI) of 12 to 50 events/hour of sleep. The study consisted of a screening period, 3 treatment periods separated by 2 washout periods, and a follow-up period. A total of 13 participants were enrolled and randomized, of which 12 (92.3%) participants completed all planned doses of study drug and the study.
Eligible participants were randomly assigned (in a double-blinded manner) to 1 of 6 treatment sequences. In each treatment period, participants underwent 3 UACI assessments, a 10-minute evaluation that tested the key biological mechanism that causes OSA (as described by Osman, A. M., et al., 2019, Sleep, 42 (7), 1-10), followed by an overnight polysomnography (PSG). After the first baseline UACI assessment (U1), an IV infusion regimen of COMPOUND A or placebo was administered over approximately 10 hours to achieve specific plasma concentrations to evaluate the effect of COMPOUND A on the UACI and PSG metrics. Target plasma concentrations for the low-dose COMPOUND A IV regimen were 10 ng/mL for the second UACI (U2), 30 ng/ml for the third UACI (U3), and 10 ng/ml for the overnight PSG. Target plasma concentrations for the high-dose COMPOUND A IV regimen were 30 ng/mL for the U2, 90 ng/mL for the U3, and 30 ng/ml for the overnight PSG.
To achieve the target exposures for the UACI assessments (U2 and U3), there was a 20-minute loading period, followed by a 15-minute maintenance period for each. The overnight maintenance dose (approximately 490 minutes) covered the duration of a standard overnight PSG (approximately 8 hours). Doses were selected to cover the potential pharmacologically active concentration range for upper airway collapsibility. The concentration of COMPOUND A in solution was such that participants received the same volume of fluid in the low-dose COMPOUND A regimen, the high-dose COMPOUND A regimen, and placebo, allowing the study to be double-blinded and ensuring all participants were infused with the same volume of fluid.
On Day 1 of each treatment period, participants checked in approximately 3 hours prior to the scheduled dosing time. The procedure started in the evening to reduce the confounding factors of endogenous OX levels on assessments. Start time was adjusted based on the patient's usual bedtime. Following a physical examination, urine drug screen, and alcohol breathalyzer test, participants were fitted with an IV catheter for placebo/COMPOUND A infusion, electroencephalogram (EEG) electrodes to monitor wakefulness, choanal and epiglottic pressure sensors, and a nasal mask and pneumotachograph to measure airflow (Osman, et al. 2019).
Following the baseline UACI measurements, IV infusion of placebo or COMPOUND A began. COMPOUND A was tested at 2 concentrations in a stepwise manner, consisting of a 20 minute loading period followed by a 15 minute maintenance period per step. The UACI was tested at each concentration during the maintenance period. […]

genioglossus muscle = assay: EMG recording of the genioglossus muscle in anesthetized rats; type: in vivo, rat; conditions: 1 mg/kg intravenous, 10 min after administration, versus vehicle, FIG. 5
Description: EMG recording of the genioglossus muscle was conducted as described previously (G. H. Zhang, et al.) with slight modifications. Rats were anaesthetized with urethane (2.0 g/kg, intraperitoneal injection). Anesthetic depth was assessed by the reflex responses to paw pinches. The tail vein was cannulated for intravenous drug administration. Each rat was laid on a servo-controlled electric heating pad. The body temperature of the rat was monitored with a rectal probe of the pad and kept at around 37° C. […] After 10 min of baseline recording, vehicle (0.1% [w/v] Polysorbate 80 and 20% [w/v] Captisol solution) or Compound C was administered intravenously and then EMG was recorded for 10 min. EMG was amplified 1,000-fold, band-pass filtered (100-5,000 Hz) using Microelectrode AC Amplifier (Model 1800; A-M systems, Carlsborg, WA, USA), digitized using AD converter (Power 1401; Cambridge Electronic Design, Cambridge, UK), recorded using Spike2 software (Cambridge Electronic Design), and then rectified and integrated with a time constant decay (100 ms) using LabChart software (AD Instruments). […] Bursts were then automatically detected, and burst amplitude was measured. […]

Row | SMILES | participants who experienced drug-related TEAEs ([1]; all treatment periods (low-dose, high-dose, placebo), 13 participants) [%] | number of drug-related TEAEs ([1]; all treatment periods (low-dose, high-dose, placebo), all mild) | deaths or serious TEAEs ([1]; during the study) | drug related TEAEs ([1]; high dose regimen) | placebo adjusted LS mean change in DBP ([1]; high dose regimen) [mmHg] | placebo adjusted LS mean change in SBP ([1]; high dose regimen) [mmHg] | consequence of TEAE of blood pressure increased ([1]; low dose regimen) | placebo adjusted LS mean change in DBP ([1]; low dose regimen) [mmHg] | placebo adjusted LS mean change in SBP ([1]; low dose regimen) [mmHg] | dose related trend of most frequent TEAE (headache) ([1]; low versus high dose regimen) | tolerability ([1]; low-dose and high-dose IV regimens, adult participants with OSA) | drug-related TEAE of blood pressure increased (number) ([1]; low-dose regimen) | drug-related TEAE of myalgia (number) ([1]; low-dose regimen) | drug-related TEAEs of headache (number) ([1]; low-dose regimen and placebo together) | intensity of TEAEs ([1]; whole study, moderate headache on low dose regimen, not related to study drug) | burst amplitude of the genioglossus muscle (genioglossus muscle)
1 | COC(=O)N1CCC[C@H](NS(C)(=O)=O)[C@@H]1CO[C@H]1CC[C@@H](c2ccccc2)CC1 (relative stereo) [Compound A, methyl(2R,3S)-3-((methylsulfonyl)amino)-2-(((cis-4-phenylcyclohexyl)oxy)methyl) piperidine-1-carboxylate] | 23.1 | 4 | No deaths or serious TEAEs | no drug related TEAEs | 1.84 | 9.01 | led to study drug discontinuation | 0.29 | 2.44 | no dose related trend was observed | generally well tolerated with no safety concerns | 1 | 1 | 2 | mild in intensity except for 1 moderate TEAE of headache | –
2 | CC(C)(O)C(=O)N1CC(F)(F)[C@H](NS(C)(=O)=O)[C@@H]1Cc1cccc(-c2cc(F)cc(F)c2)c1F [Compound C, N-{(2S,3R)-4,4-difluoro-1-(2-hydroxy-2-methylpropanoyl)-2-[(2,3′,5′-trifluoro[1,1′-biphenyl]-3-yl)methyl]pyrrolidin-3-yl}methanesulfonamide] | – | – | – | – | – | – | – | – | – | – | – | – | – | – | – | significantly increased burst amplitude

Source: patent US20260256753A1, “USE OF AN OREXIN 2 RECEPTOR AGONIST FOR IMPROVING RESPIRATORY FUNCTION DURING SLEEP” (TAKEDA PHARMACEUTICAL COMPANY LIMITED, priority 2023, published 2026)
